Measurements: article PMC7782785, “Outer-membrane-acting peptides and lipid II-targeting antibiotics cooperatively kill Gram-negative pathogens” (Communications Biology, 2021)
Values after ≈ are worked out from the molar mass of the structure shown.

Key:
HEK-293 cells = assay: Cytotoxicity, cell viability (CellTiter-Glo); conditions: for Cell viability (% of control): HEK-293, CellTiter-Glo
Description: 96-well plates were seeded with HEK-293 cells at a concentration of 3*10^5 cells/well in 100 µL of DMEM growth medium supplemented with 1% NEAA and 10% FBS. Border wells were filled with 100 µL of sterile PBS. […] ATP levels were measured by adding 50 µL of CellTiter-Glo reagent (Promega, Madison, US) to each well, and luminescence was measured with a SpectraMax i3 microplate reader after 5 minutes of incubation. The potential effect of the tested compounds on cell viability was determined by comparing the signal obtained in the presence of different concentrations of the compounds with those obtained in the control wells. All these tests were performed in triplicate.

[1] = test system: five Gram-negative strains; assay: Bactericidal effect testing; type: cell-based; conditions: 10-fold MIC (alone or in combination), CAMHB, 37 °C, 3 h, plating on LB agar; no colonies of any of the five strains
Description: After that, 50 µL of a 10^3-fold diluted sample were plated on LB agar[59].

E. aerogenes LMG 02094 = assay: microbe, parasite or virus in culture; conditions: Klebsiella aerogenes, LMG02094
Description: (§1) MIC tests were performed in triplicate by liquid growth inhibition microdilution assays in sterile polypropylene microtiter plates according to the Clinical and Laboratory Standards Institute (CLSI) guideline for bacteria that grow aerobically. Briefly, the indicator strains were first streaked on the appropriate agar plate, and then single colonies were picked and incubated overnight in liquid broth. The final inoculum of bacteria was 5*10^5 CFU/mL prepared in CAMHB (cationic adjusted Mueller–Hinton broth, Sigma-Aldrich) or CAMHB plus 5% of lysed horse blood (TCS Biosciences, Buckingham, UK) in the case of S. pneumoniae. The antimicrobials were 2-fold serially diluted and 50 µL diluted bacterial suspension was added to each well to make the final volume 100 µL. The microtiter plates and the count plates were incubated at 37 °C for 16–20 h without shaking. Growth inhibition was assessed by measuring the OD600 using a microplate reader (Tecan Infinity F200). The lowest concentration of the antimicrobials that inhibits visible growth of the indicator strain is identified as the MIC value.
(§2) The condition for the tests and the analysis of the plates were performed as described above for the MIC tests.

A. baumannii LMG 01041 = assay: microbe, parasite or virus in culture; conditions: Acinetobacter baumannii, LMG01041
Description: as §1, §2

K. pneumoniae LMG 20218 [2] = assay: microbe, parasite or virus in culture; conditions: Klebsiella pneumoniae, LMG20218
Description: as §1, §2

P. aeruginosa LMG 6395 = assay: microbe, parasite or virus in culture; conditions: Pseudomonas aeruginosa, LMG6395
Description: as §1, §2

E. coli LMG 15862 = assay: microbe, parasite or virus in culture; conditions: Escherichia coli, LMG15862
Description: as §1, §2

[3] = test system: human red blood cells (hRBCs); assay: Hemolytic activity
Description: Hemolytic activity was determined with fresh human red blood cells (hRBCs)[28]. The hRBCs were centrifuged (1000×g, 5 min) and the supernatant was discarded. The pellets were washed three times with PBS and diluted in PBS to make the cell stock solution with a cell density of 2*10^8 cells/mL. […] 1% Triton X-100 and PBS were used as controls. The cells were incubated at 37 °C for 1 h and centrifuged at 2000 rpm for 5 min. The supernatant was transferred to a new 96-well plate and hemolysis was monitored by measuring the absorbance at 450 nm (OD450). Hemolysis levels were calculated as percentage. % hemolysis = 100 × (As−A0)/(At−A0), where As, A0, and At are the absorbance of the hRBCs suspension in PBS with antimicrobial agents (As), without antimicrobial agents (A0), and with 1% Triton X-100 (At). […] For the TI calculation (TI = MHC/GM), other factors as the GM (geometric mean of MIC value of all the Gram-negative strains tested) were calculated.

K. pneumoniae LMG 20218 [4] = conditions: K. pneumoniae
Description: (§3) For the synergy test, standard checkerboard broth microdilution assays were conducted to test the synergistic effect of combined antimicrobials using the same condition as before[51],[56]. […] The initial concentration of both peptides was their individual MIC. 50 µL fresh bacterial suspension prepared as above was added to the wells already containing the antimicrobial compound mixture to achieve 100 µL final volume per well.
(§4) The fractional inhibitory concentration (FIC) indices[57] were calculated using the formula FICI = FICa + FICb = MICac/MICa + MICbc/MICb, to determine whether the combination is additive, synergistic or antagonistic[51],[57]. The MICa and MICb is the MIC of compound A or B alone, respectively. MICac is the MIC of compound A in combination with compound B and MICbc is the MIC of compound B when it was combined with compound A. The FIC corresponds to the MIC of a compound in combination with the other compound, divided by the MIC of the compound alone. FICa is FIC of compound A while FICb is FIC of compound B. The FICI was interpreted according to EUCAST[58] as follows: synergistic, FICI ≤ 0.5; additive,0.5 < FICI ≤ 1; indifferent, 1 < FICI < 2; antagonistic, FICI ≥ 2.
as §2

K. pneumoniae ATCC700603 = assay: Synergy test, checkerboard broth microdilution; type: cell-based
Description: as §3, §4

[5] = test system: K. pneumoniae ATCC BAA-2524; assay: microbe, parasite or virus in culture; type: cell-based; conditions: Klebsiella pneumoniae, ATCCBAA2524, read-out: MIC alone (MICA vancomycin, MICB D-11)
Description: as §1

[6] = test system: P. aeruginosa ATCC BAA-2108; assay: microbe, parasite or virus in culture; type: cell-based; conditions: Pseudomonas aeruginosa, ATCCBAA2108, read-out: MIC alone (MICA vancomycin, MICB D-11)
Description: as §1

E. coli ATCC 25922 = assay: microbe, parasite or virus in culture; type: cell-based; conditions: Escherichia coli, ATCC25922, read-out: MIC alone (MICA vancomycin, MICB D-11)
Description: as §1

P. aeruginosa B1954 = assay: microbe, parasite or virus in culture; type: cell-based; conditions: Pseudomonas aeruginosa, B1954, read-out: MIC alone (MICA vancomycin, MICB D-11)
Description: as §1

[7] = test system: A. baumannii ATCC BAA-1605; assay: microbe, parasite or virus in culture; type: cell-based; conditions: Acinetobacter baumannii, ATCCBAA1605, read-out: MIC alone (MICA vancomycin, MICB D-11)
Description: as §1

E. coli B1927 = assay: microbe, parasite or virus in culture; type: cell-based; conditions: Escherichia coli, B1927, read-out: MIC alone (MICA vancomycin, MICB D-11)
Description: as §1

Question: How did the “Cell viability (% of control)” value (HEK-293 cells; 22 µM (22/22 µM for the combination), replicate 1) turn out when CN[C@H](CC(C)C)C(=O)N[C@H]1C(=O)N[C@@H](CC(N)=O)C(=O)N[C@H]2C(=O)N[C@H]3C(=O)N[C@H](C(=O)N[C@H](C(=O)O)c4cc(O)cc(O)c4-c4cc3ccc4O)[C@H](O)c3ccc(c(Cl)c3)Oc3cc2cc(c3O[C@@H]2O[C@H](CO)[C@@H](O)[C@H](O)[C@H]2O[C@H]2C[C@](C)(N)[C@H](O)[C@H](C)O2)Oc2ccc(cc2Cl)[C@H]1O [Vancomycin] was run?
Answer: 96 % of control

Question: What about the “Cell viability (% of control)” value (HEK-293 cells; 22 µM (22/22 µM for the combination), replicate 2) of the same molecule?
Answer: 107 % of control

Question: What about the “Cell viability (% of control)” value (HEK-293 cells; 22 µM (22/22 µM for the combination), replicate 3) of the same molecule?
Answer: 113 % of control

Question: What about the “Cell viability (% of control)” value (HEK-293 cells; 44 µM (44/44 µM for the combination), replicate 1) of the same molecule?
Answer: 110 % of control

Question: And the “Cell viability (% of control)” value (HEK-293 cells; 44 µM (44/44 µM for the combination), replicate 2)?
Answer: 102 % of control

Question: And the “Cell viability (% of control)” value (HEK-293 cells; 44 µM (44/44 µM for the combination), replicate 3)?
Answer: 114 % of control

Question: And the “Cell viability (% of control)” value (HEK-293 cells; 88 µM (88/88 µM for the combination), replicate 1)?
Answer: 103 % of control

Question: And the “Cell viability (% of control)” value (HEK-293 cells; 88 µM (88/88 µM for the combination), replicate 3)?
Answer: 114 % of control

Question: And the “effect on viability of HEK-293 cells” value (HEK-293 cells; all the concentrations tested (up to 88 µM))?
Answer: did not affect the viability

Question: What about the bactericidal effect [1] of the same molecule?
Answer: bactericidal

Question: And the MIC (E. aerogenes LMG 02094)?
Answer: 192 µM (≈ 278 µg/mL)

Question: And the MIC (A. baumannii LMG 01041)?
Answer: 32 µM (≈ 46.4 µg/mL)

Question: What about the MIC (K. pneumoniae LMG 20218 [2]) of the same molecule?
Answer: 128 µM (≈ 186 µg/mL)

Question: What about the MIC (P. aeruginosa LMG 6395) of the same molecule?
Answer: 128 µM (≈ 186 µg/mL)

Question: And the MIC (E. coli LMG 15862)?
Answer: 64 µM (≈ 92.8 µg/mL)

Question: What about the “HC50, concentration that causes 50% hemolysis of hRBCs” value [3] of the same molecule?
Answer: > 500 µM

Question: And the “MHA, mean hemolytic activity” value [3]?
Answer: 0%

Question: And the “MHC, minimal hemolytic concentration that caused 10% hemolysis of hRBCs” value [3]?
Answer: 1000 µM

Question: What about the “hemolysis of hRBCs” value [3] of the same molecule?
Answer: did not cause any hemolysis

Question: And the “vancomycin concentration needed in combination with D-11” value (K. pneumoniae LMG 20218 [4]; checkerboard after the addition of excess LPS (1.0 mg/mL))?
Answer: at least 32 µM

Question: What about the “vancomycin concentration inhibiting growth in combination with 1 µM D-11” value (K. pneumoniae LMG 20218 [4]; checkerboard without the addition of LPS) of the same molecule?
Answer: 2 µM

Question: And the “MICAB: MIC of vancomycin in combination with D-11 at the MICAC concentration” value (K. pneumoniae ATCC700603)?
Answer: 11.04 µM

Question: And the MIC [5]?
Answer: > 88.3 µM

Question: What about the MIC [6] of the same molecule?
Answer: > 88.3 µM

Question: And the MIC (E. coli ATCC 25922)?
Answer: > 88.3 µM

Question: And the MIC (P. aeruginosa B1954)?
Answer: 88.3 µM (≈ 128 µg/mL)

Question: What about the MIC [7] of the same molecule?
Answer: 44.2 µM (≈ 64 µg/mL)

Question: What about the MIC (E. coli B1927) of the same molecule?
Answer: 88.3 µM (≈ 128 µg/mL)
